Measured values as given in PMC3675020, “Repositioning of Verrucosidin, a Purported Inhibitor of Chaperone Protein GRP78, as an Inhibitor of Mitochondrial Electron Transport Chain Complex I” (PLoS ONE, 2013).

Target: T1, complex I (NADH dehydrogenase) (Mus musculus, UniProt P03888+Q91WD5+Q91YT0+Q9DC70)
T1 construct: gene Ndufs2; native respiratory complex in intact isolated mouse liver mitochondria; with NADH dehydrogenase [ubiquinone] flavoprotein 2, mitochondrial; NADH-ubiquinone oxidoreductase 75 kDa subunit, mitochondrial; NADH dehydrogenase [ubiquinone] iron-sulfur protein 3, mitochondrial; NADH dehydrogenase [ubiquinone] iron-sulfur protein 8, mitochondrial; NADH-ubiquinone oxidoreductase chain 2; NADH-ubiquinone oxidoreductase chain 3; NADH-ubiquinone oxidoreductase chain 4; NADH-ubiquinone oxidoreductase chain 4L; NADH-ubiquinone oxidoreductase chain 5; NADH-ubiquinone oxidoreductase chain 6
Experiment: NADH:DCIP reduction, absorbance […] nm
Assay type: biochemical
Details: isolated mouse liver mitochondria; DCIP as artificial electron acceptor, glycylglycine pH 8.5; turnover only

Q: With `NC(=O)C1=CN([C@@H]2O[C@H](COP(=O)(O)OP(=O)(O)OC[C@H]3O[C@@H](n4cnc5c(N)ncnc54)[C@H](O)[C@@H]3O)[C@@H](O)[C@H]2O)C=CC1` [NADH] as the compound, how does the “NADH:DCIP reduction, absorbance 600 nm” value read?
A: artificial electron acceptor dichlorophenolindophenol (DCIP) in the presence of NADH
